Consider twelve compounds from US20160176867A1, “MODIFIED BET-PROTEIN-INHIBITING DIHYDROQUINOXALINONES AND DIHYDROPYRIDOPYRAZINONES” (BAYER PHARMA AKTIENGESELLSCHAFT, priority 2013, published 2016).

Molecules are shown by their SMILES. pIC50: −log10 of the molar value.

For orientation: pIC50 means the negative decadic logarithm of the IC50, by convention in mol/L.

In test [1] the target is T1, BRD4 bromo domain 2 [BRD4(2)] (Homo sapiens, UniProt O60885).
T1 construct: N-terminally His6-tagged BRD4(2) (amino acids 357-445); made in house; host or cells: E. coli
Nature of the test: BRD4/acetylated peptide H4 binding assay (TR-FRET), BRD4 bromo domain 2. The settings on record: inhibition of BRD4(2)/Ac-H4 peptide interaction. The text has this: (§1) Protein-Protein Interaction Assay: BRD4/Acetylated Peptide H4 Binding Assay
To assess the BRD4(2) binding strength of the substances described in this application, the ability thereof to inhibit the interaction between BRD4(2) and acetylated histone H4 in a dose-dependent manner was quantified.
(§2) For this purpose, a time-resolved fluorescence resonance energy transfer (TR-FRET) assay was used, which measures the binding between N-terminally His6-tagged BRD4(2) (amino acids 357-445) and a synthetic acetylated histone H4 (Ac-H4) peptide with sequence SGRGK(Ac)GGK(Ac)GLGK(Ac)GGAK(Ac)RHRKVLRDNGSGSK-biotin. The recombinant BRD4(2) protein produced in-house according to Filippakopoulos et al., Nature, 2010, 468:1119-1123 and Cell, 2012, 149:214-231, was expressed in E. coli and purified by means of (Ni-NTA) affinity and (Sephadex G-75) size exclusion chromatography. The Ac-H4 peptide can be purchased, for example, from Biosyntan (Berlin, Germany).
(§3) In the assay, typically 11 different concentrations of each substance (0.1 nM, 0.33 nM, 1.1 nM, 3.8 nM, 13 nM, 44 nM, 0.15 μM, 0.51 μM, 1.7 μM, 5.9 μM and 20 μM) were analysed as duplicates on the same microtitre plate. For this purpose, 100-fold concentrated solutions in DMSO were prepared by serial dilutions (1:3.4) of a 2 mM stock solution into a clear, 384-well microtitre plate (Greiner Bio-One, Frickenhausen, Germany). From this, 50 nl were transferred into a black test plate (Greiner Bio-One, Frickenhausen, Germany). The test was started by the addition of 2 μl of a 2.5-fold concentrated BRD4(2) solution (final concentration typically 100 nM in the 5 μl of reaction volume) in aqueous assay buffer [50 mM HEPES pH 7.5, 50 mM sodium chloride (NaCl); 50 mM potassium fluoride (KF); 0.25 mM CHAPS and 0.05% serum albumin (BSA)] to the substances in the test plate. This was followed by a 10-minute incubation step at 22° C. for the pre-equilibration of putative complexes between BRD4(2) and the substances. Subsequently, 3 μl of a 1.67-fold concentrated solution (in assay buffer) consisting of Ac-H4 peptide (83.5 nM) and TR-FRET detection reagents [83.5 nM anti-6His-XL665 (Cisbio Bioassays, Codolet, France) and 12.52 nM streptavidin-Eu), (Perkin Elmer, #W1024)] in assay buffer were added.
(§4) The mixture was then incubated in the dark at 22° C. for one hour and then at 4° C. for at least 3 hours and for no longer than overnight. The formation of BRD4(2)/Ac-H4 complexes was determined by the measurement of the resonance energy transfer from the streptavidin-Eu chelate to the anti-6His-XL665 antibody present in the reaction. For this purpose, the fluorescence emission was measured at 620 nm and 665 nm after excitation at 330-350 nm in a TR-FRET measuring instrument, for example a Rubystar or Pherastar (both from BMG Lab Technologies, Offenburg, Germany) or a Viewlux (Perkin-Elmer). The ratio of the emissions at 665 nm and at 622 nm was taken as an indicator of the amount of BRD4(2)/Ac-H4 complexes formed.
The data (ratios) obtained were normalized, with 0% inhibition corresponding to the mean from the measurements for a set of controls (typically 32 data points) in which all the reagents were present. In these, in place of test substances, 50 nl of DMSO (100%) were used. Inhibition of 100% corresponded to the mean from the measurements for a set of controls (typically 32 data points) in which all the reagents except BRD4(2) were present. The IC50 was determined by regression analysis based on a 4-parameter equation (minimum, maximum, IC50, Hill; Y=max+(min−max)/(1+(X/IC50)Hill)).

In test [2] the target is T2, BRD4 bromo domain 1 [BRD4(1)] (Homo sapiens, UniProt O60885).
T2 construct: N-terminally His6-tagged BRD4(1) (amino acids 67-152); made in house; host or cells: E. coli
Nature of the test: BRD4/acetylated peptide H4 binding assay (TR-FRET), BRD4 bromo domain 1. To be noted: inhibition of BRD4(1)/Ac-H4 peptide interaction.
Text: as §1
To assess the BRD4(1) binding strength of the substances described in this application, the ability thereof to inhibit the interaction between BRD4(1) and acetylated histone H4 in a dose-dependent manner was quantified.
as §2, with “BRD4(1)” for “BRD4(2)”, “67-152)” for “357-445)”, “GRGK(Ac)GGK(Ac)GLGK(Ac)GGAK(Ac)RHGSGSK-biotin.” for “SGRGK(Ac)GGK(Ac)GLGK(Ac)GGAK(Ac)RHRKVLRDNGSGSK-biotin.”
as §3, with “concentrated BRD4(1)” for “concentrated BRD4(2)”, “typically 10” for “typically 100”, “chloride (NaCl),” for “chloride (NaCl); 50 mM potassium fluoride (KF);”, “between BRD4(1)” for “between BRD4(2)”, “substances.” for “substances. Subsequently, 3 μl of a 1.67-fold concentrated solution (in assay buffer) consisting of Ac-H4 peptide (83.5 nM) and TR-FRET detection reagents [83.5 nM anti-6His-XL665 (Cisbio Bioassays, Codolet, France) and 12.52 nM streptavidin-Eu), (Perkin Elmer, #W1024)] in assay buffer were added.”
as §4, with “BRD4(1)/Ac-H4” for “BRD4(2)/Ac-H4”, “cryptate” for “chelate”
The data (ratios) obtained were normalized, with 0% inhibition corresponding to the mean from the measurements for a set of controls (typically 32 data points) in which all the reagents were present. In these, in place of test substances, 50 nl of DMSO (100%) were used. Inhibition of 100% corresponded to the mean from the measurements for a set of controls (typically 32 data points) in which all the reagents except BRD4(1) were present. The IC50 was determined by regression analysis based on a 4-parameter equation (minimum, maximum, IC50, Hill; Y=max+(min−max)/(1+(X/IC50)Hill)).
(TR-FRET usually uses a lanthanide donor and a delayed reading to cut background.)

With `COCCN1c2nc(Nc3cccc(C(=O)NC4CCN(C)CC4)c3)ccc2N(C)C(=O)C1C` (racemic) [Example 98, 3-{[4-(2-methoxyethyl)-1,3-dimethyl-2-oxo-1,2,3,4-tetrahydropyrido[2,3-b]pyrazin-6-yl]amino}-N-(1-methylpiperidin-4-yl)benzamide], the pIC50 in test [1] was 6.67; in test [2], 6.27.
The matching figures for `COCCN1c2nc(Nc3cccc(S(=O)(=O)N4CCOCC4)c3)ccc2N(C)C(=O)[C@@H]1C` (stereo in doubt) [Example 112, (3S)-4-(2-methoxyethyl)-1,3-dimethyl-6-{[3-(morpholin-4-ylsulphonyl)phenyl]amino}-3,4-dihydropyrido[2,3-b]pyrazin-2(1H)-one]: 7.24 and 5.28.
On to `C[C@@H]1C(=O)N(C)c2ccc(Nc3cccc(C(=O)NC4CCN(C)CC4)c3)nc2N1c1ccc(F)cc1` (stereo in doubt) [Example 115, 3-{[(3R)-4-(4-fluorophenyl)-1,3-dimethyl-2-oxo-1,2,3,4-tetrahydropyrido[2,3-b]pyrazin-6-yl]amino}-N-(1-methylpiperidin-4-yl)benzamide], for which the pIC50 in test [1] was 6.15; in test [2], 6.42.
Take `C[C@H]1C(=O)N(C)c2ccc(Nc3cccc(C(=O)NC4CCN(C)CC4)c3)nc2N1c1ccc(F)cc1` (stereo in doubt) [Example 116, 3-{[(3S)-4-(4-fluorophenyl)-1,3-dimethyl-2-oxo-1,2,3,4-tetrahydropyrido[2,3-b]pyrazin-6-yl]amino}-N-(1-methylpiperidin-4-yl)benzamide]: the figures for the pIC50 in test [1] and in test [2] were below 4.40 and 5.17, respectively.
On the same counts, the results for `COCCN1c2nc(Nc3cccc(C(=O)N4CCN(C)CC4)c3)ccc2N(C)C(=O)[C@H]1C` (stereo in doubt) [Example 117, (3R)-4-(2-methoxyethyl)-1,3-dimethyl-6-({3-[(4-methylpiperazin-1-yl)carbonyl]phenyl}amino)-3,4-dihydropyrido[2,3-b]pyrazin-2(1H)-one] are 6.36 and 6.31.
The matching figures for `COCCN1c2nc(Nc3cccc(C(=O)N4CCN(C)CC4)c3)ccc2N(C)C(=O)[C@@H]1C` (stereo in doubt) [Example 118, (3S)-4-(2-methoxyethyl)-1,3-dimethyl-6-({3-[(4-methylpiperazin-1-yl)carbonyl]phenyl}amino)-3,4-dihydropyrido[2,3-b]pyrazin-2(1H)-one]: below 4.40 and 4.74.
On to `COCCN1c2nc(Nc3cccc(C(=O)NC4CCN(C)CC4)c3)ccc2N(C)C(=O)[C@H]1C` (stereo in doubt) [Example 119, 3-{[(3R)-4-(2-methoxyethyl)-1,3-dimethyl-2-oxo-1,2,3,4-tetrahydropyrido[2,3-b]pyrazin-6-yl]amino}-N-(1-methylpiperidin-4-yl)benzamide], for which the results for the pIC50 in test [1] and in test [2] were 6.37 and 6.13, respectively.
The matching figures for `COCCN1c2nc(Nc3cccc(C(=O)NC4CCN(C)CC4)c3)ccc2N(C)C(=O)[C@@H]1C` (stereo in doubt) [Example 120, 3-{[(3S)-4-(2-methoxyethyl)-1,3-dimethyl-2-oxo-1,2,3,4-tetrahydropyrido[2,3-b]pyrazin-6-yl]amino}-N-(1-methylpiperidin-4-yl)benzamide]: 5.35 and 5.16.
`COc1ccc(C(=O)N[C@H]2CC[C@H](N3CCN(CC4CC4)CC3)CC2)cc1Nc1ccc2c(n1)N(C1CCOCC1)[C@H](C)C(=O)N2C` [Example 18, N-{trans-4-[4-(Cyclopropylmethyl)piperazin-1-yl]cyclohexyl}-3-{[(3R)-1,3-dimethyl-2-oxo-4-(tetrahydro-2H-pyran-4-yl)-1,2,3,4-tetrahydropyrido[2,3-b]pyrazin-6-yl]amino}-4-methoxybenzamide] gave a pIC50 in test [2] of 6.83.
Compound `C[C@@H]1C(=O)N(C)c2ccc(Nc3cccc(S(=O)(=O)N4CC(F)(F)C4)c3)nc2N1C1CCOCC1` [Example 31, (3R)-6-({3-[(3,3-Difluoroazetidin-1-yl)sulphonyl]phenyl}amino)-1,3-dimethyl-4-(tetrahydro-2H-pyran-4-yl)-3,4-dihydropyrido[2,3-b]pyrazin-2(1H)-one] showed a pIC50 in test [2] of 7.40.
Same read-out and setting: in the case of `CC(C)NS(=O)(=O)c1cccc(Nc2ccc3c(n2)N(C2CCOCC2)[C@H](C)C(=O)N3C)c1` [Example 42, 3-{[(3R)-1,3-dimethyl-2-oxo-4-(tetrahydro-2H-pyran-4-yl)-1,2,3,4-tetrahydropyrido[2,3-b]pyrazin-6-yl]amino}-N-isopropylbenzene-sulphonamide] it was 7.44; in that of `COc1ccc(C(=O)N[C@H]2CC[C@H](N3CCN(CC4CC4)CC3)CC2)cc1Nc1ccc2c(n1)N(C1CCOCC1)[C@H](C)C(=O)N2C` [Example 87, N-{trans-4-[4-(cyclo-propylmethyl)piperazin-1-yl]cyclohexyl}-3-{[(3R)-1,3-dimethyl-2-oxo-4-(tetrahydro-2H-pyran-4-yl)-1,2,3,4-tetrahydropyrido[2,3-b]pyrazin-6-yl]amino}-4-methoxybenzamide], 6.45.
